Assay results published in ChEMBL document CHEMBL1201862, “PubChem BioAssay data set” (2004).
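Method: 48-hour compound exposure of cells in 96-well plates, five concentrations, linear interpolation of endpoints. At the GI50, growth is halved.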 Activity calls are given as the source filed them. No stated cut-off is given here; in the data, active = GI50 up to about 1.1 µM and inactive = higher.

Tests used:
Assay in all cases: NCI tumour cell line growth inhibition, 48 h
[1] = tested on: K562
[2] = tested on: OVCAR-3
[3] = tested on: HOP-62
[4] = tested on: SN12C
[5] = tested on: EKVX
[6] = tested on: SK-MEL-2
[7] = tested on: NCI-H23
[8] = tested on: KM12
[9] = tested on: TK-10
[10] = tested on: OVCAR-8
[11] = tested on: MOLT-4
[12] = tested on: HL-60
[13] = tested on: SNB-75
[14] = tested on: HCT-116
[15] = tested on: M14
[16] = tested on: A549
[17] = tested on: SK-OV-3
[18] = tested on: SW-620
[19] = tested on: HCT-15
[20] = tested on: ACHN

## Cc1nc(Cl)c(C)c(Cl)n1
[1]
  GI50: 18.3 µM (inactive)
[2]
  GI50: > 100 µM (inactive)
[3]
  GI50: > 77.4 µM (inactive)
[4]
  GI50: > 100 µM (inactive)
[5]
  GI50: > 27 µM (inactive)
[6]
  GI50: > 100 µM (inactive)
[7]
  GI50: 35.3 µM (inactive)
[8]
  GI50: > 59.6 µM (inactive)
[9]
  GI50: > 100 µM (inactive)
[10]
  GI50: > 100 µM (inactive)
[11]
  GI50: 6.17 µM (inactive)
[12]
  GI50: 8.59 µM (inactive)
[13]
  GI50: > 100 µM (inactive)
[14]
  GI50: > 100 µM (inactive)
[15]
  GI50: 37.7 µM (inactive)
[16]
  GI50: > 100 µM (inactive)
[17]
  GI50: > 100 µM (inactive)
[18]
  GI50: > 55.8 µM (inactive)
[19]
  GI50: > 63.4 µM
[20]
  GI50: > 100 µM (inactive)

## CC(C)c1ccc(/C=C2\CSCC3=C2N=C2SCC(=O)N2C3c2ccc(C(C)C)cc2)cc1 (stereo not given)
[1]
  GI50: > 100 µM (inactive)
[2]
  GI50: > 100 µM (inactive)
[3]
  GI50: > 100 µM (inactive)
[4]
  GI50: 92.7 µM (inactive)
[5]
  GI50: > 100 µM (inactive)
[6]
  GI50: > 100 µM (inactive)
[7]
  GI50: > 100 µM (inactive)
[8]
  GI50: > 100 µM (inactive)
[9]
  GI50: > 100 µM (inactive)
[10]
  GI50: > 100 µM (inactive)
[11]
  GI50: 75.5 µM (inactive)
[12]
  GI50: > 100 µM (inactive)
[13]
  GI50: > 100 µM (inactive)
[14]
  GI50: > 100 µM (inactive)
[15]
  GI50: > 100 µM (inactive)
[16]
  GI50: > 100 µM (inactive)
[17]
  GI50: > 100 µM (inactive)
[18]
  GI50: > 100 µM (inactive)
[19]
  GI50: > 100 µM
[20]
  GI50: > 100 µM (inactive)

## O=C(Nc1ccccc1C(=O)NCCCO)/C(=C/c1ccccc1O)NC(=O)c1ccccc1
[1]
  GI50: > 100 µM (inactive)
[2]
  GI50: 48.8 µM (inactive)
[3]
  GI50: 20.5 µM (inactive)
[4]
  GI50: > 80.9 µM (inactive)
[5]
  GI50: 65.6 µM (inactive)
[6]
  GI50: 44.3 µM (inactive)
[7]
  GI50: 36.1 µM (inactive)
[8]
  GI50: 18.4 µM (inactive)
[9]
  GI50: 97.9 µM (inactive)
[10]
  GI50: > 42.7 µM (inactive)
[11]
  GI50: > 100 µM (inactive)
[12]
  GI50: > 100 µM (inactive)
[13]
  GI50: 20.2 µM (inactive)
[14]
  GI50: 37.3 µM (inactive)
[15]
  GI50: 55.6 µM (inactive)
[16]
  GI50: > 100 µM (inactive)
[17]
  GI50: 51.5 µM (inactive)
[18]
  GI50: > 84.3 µM (inactive)
[19]
  GI50: > 78.2 µM
[20]
  GI50: 30.8 µM (inactive)
